In PubChem BioAssay (NCI):
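All cell lines were grown in 96-well plates and treated with compound for 48 hours. TGI: concentration producing complete growth inhibition.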

Key:
Experiment in all cases: NCI tumour cell line growth inhibition, 48 h
SK-MEL-2 melanoma = system: SK-MEL-2 melanoma
SNB-19 CNS = system: SNB-19 CNS
SK-OV-3 ovarian = system: SK-OV-3 ovarian
NCI/ADR-RES ovarian = system: NCI/ADR-RES ovarian
MOLT-4 leukemia = system: MOLT-4 leukemia
KM12 colon = system: KM12 colon
SK-MEL-5 melanoma = system: SK-MEL-5 melanoma
LOX IMVI melanoma = system: LOX IMVI melanoma
UACC-257 melanoma = system: UACC-257 melanoma
NCI-H226 lung = system: NCI-H226 lung
HT29 colon = system: HT29 colon
SNB-75 CNS = system: SNB-75 CNS
CCRF-CEM leukemia = system: CCRF-CEM leukemia
SN12C renal = system: SN12C renal
HCC-2998 colon = system: HCC-2998 colon
SR leukemia = system: SR leukemia
SK-MEL-28 melanoma = system: SK-MEL-28 melanoma
SF-268 CNS = system: SF-268 CNS
U251 CNS = system: U251 CNS
MCF7 breast = system: MCF7 breast
HCT-15 colon = system: HCT-15 colon
HS 578T breast = system: HS 578T breast
M14 melanoma = system: M14 melanoma
CAKI-1 renal = system: CAKI-1 renal
EKVX NSCLC = system: EKVX NSCLC
A498 renal = system: A498 renal
786-0 renal = system: 786-0 renal
OVCAR-8 ovarian = system: OVCAR-8 ovarian
HCT-116 colon = system: HCT-116 colon
UACC-62 melanoma = system: UACC-62 melanoma
RPMI-8226 leukemia = system: RPMI-8226 leukemia
MDA-MB-231 breast = system: MDA-MB-231 breast
MDA-MB-435 = system: MDA-MB-435
OVCAR-5 ovarian = system: OVCAR-5 ovarian
SW-620 colon = system: SW-620 colon
UO-31 renal = system: UO-31 renal
MDA-N = system: MDA-N
OVCAR-4 ovarian = system: OVCAR-4 ovarian
HL-60(TB) leukemia = system: HL-60(TB) leukemia
A549 NSCLC = system: A549 NSCLC
T-47D breast = system: T-47D breast
DU-145 prostate = system: DU-145 prostate
PC-3 prostate = system: PC-3 prostate
NCI-H23 lung = system: NCI-H23 lung
MALME-3M melanoma = system: MALME-3M melanoma
SF-539 CNS = system: SF-539 CNS
NCI-H522 lung = system: NCI-H522 lung
OVCAR-3 ovarian = system: OVCAR-3 ovarian
RXF 393 renal = system: RXF 393 renal
K-562 leukemia = system: K-562 leukemia
COLO 205 colon = system: COLO 205 colon
TK-10 renal = system: TK-10 renal
BT-549 breast = system: BT-549 breast
NCI-H460 lung = system: NCI-H460 lung

**Q.** With CSC1=NN(c2ccccc2)C(=O)C1=C(SC)SC as the compound, how does the TGI (SK-MEL-2 melanoma) read?
**A.** 73.4 µM

**Q.** And the TGI (SNB-19 CNS)?
**A.** 82 µM

**Q.** What about the TGI (SK-OV-3 ovarian) of the same compound?
**A.** > 100 µM

**Q.** And the TGI (NCI/ADR-RES ovarian)?
**A.** 49.2 µM

**Q.** And the TGI (MOLT-4 leukemia)?
**A.** > 100 µM

**Q.** And the TGI (KM12 colon)?
**A.** > 100 µM

**Q.** What about the TGI (SK-MEL-5 melanoma) of the same compound?
**A.** 29.8 µM

**Q.** And the TGI (LOX IMVI melanoma)?
**A.** 66.1 µM

**Q.** And the TGI (UACC-257 melanoma)?
**A.** 46.7 µM

**Q.** What about the TGI (NCI-H226 lung) of the same compound?
**A.** 39.9 µM

**Q.** And the TGI (HT29 colon)?
**A.** 43.5 µM

**Q.** What about the TGI (SNB-75 CNS) of the same compound?
**A.** 94.3 µM

**Q.** What about the TGI (CCRF-CEM leukemia) of the same compound?
**A.** > 100 µM

**Q.** And the TGI (SN12C renal)?
**A.** 97.8 µM

**Q.** What about the TGI (HCC-2998 colon) of the same compound?
**A.** 91.7 µM

**Q.** What about the TGI (SR leukemia) of the same compound?
**A.** 83.7 µM

**Q.** What about the TGI (SK-MEL-28 melanoma) of the same compound?
**A.** > 100 µM

**Q.** What about the TGI (SF-268 CNS) of the same compound?
**A.** > 100 µM

**Q.** And the TGI (U251 CNS)?
**A.** 87.6 µM

**Q.** And the TGI (MCF7 breast)?
**A.** 49.6 µM

**Q.** What about the TGI (HCT-15 colon) of the same compound?
**A.** 76 µM

**Q.** And the TGI (HS 578T breast)?
**A.** > 100 µM

**Q.** And the TGI (M14 melanoma)?
**A.** > 100 µM

**Q.** What about the TGI (CAKI-1 renal) of the same compound?
**A.** 43.9 µM

**Q.** And the TGI (EKVX NSCLC)?
**A.** > 100 µM

**Q.** What about the TGI (A498 renal) of the same compound?
**A.** 35.4 µM

**Q.** And the TGI (786-0 renal)?
**A.** > 100 µM

**Q.** What about the TGI (OVCAR-8 ovarian) of the same compound?
**A.** 65.9 µM

**Q.** What about the TGI (HCT-116 colon) of the same compound?
**A.** 53.8 µM

**Q.** And the TGI (UACC-62 melanoma)?
**A.** 66.7 µM

**Q.** What about the TGI (RPMI-8226 leukemia) of the same compound?
**A.** 47 µM

**Q.** What about the TGI (MDA-MB-231 breast) of the same compound?
**A.** 53 µM

**Q.** What about the TGI (MDA-MB-435) of the same compound?
**A.** > 100 µM

**Q.** What about the TGI (OVCAR-5 ovarian) of the same compound?
**A.** > 100 µM

**Q.** What about the TGI (SW-620 colon) of the same compound?
**A.** > 100 µM

**Q.** What about the TGI (UO-31 renal) of the same compound?
**A.** 37 µM

**Q.** And the TGI (MDA-N)?
**A.** > 100 µM

**Q.** What about the TGI (OVCAR-4 ovarian) of the same compound?
**A.** > 100 µM

**Q.** What about the TGI (HL-60(TB) leukemia) of the same compound?
**A.** 51.8 µM

**Q.** What about the TGI (A549 NSCLC) of the same compound?
**A.** 64.6 µM

**Q.** What about the TGI (T-47D breast) of the same compound?
**A.** 70.3 µM

**Q.** And the TGI (DU-145 prostate)?
**A.** > 100 µM

**Q.** And the TGI (PC-3 prostate)?
**A.** 47 µM

**Q.** What about the TGI (NCI-H23 lung) of the same compound?
**A.** 55.7 µM

**Q.** What about the TGI (MALME-3M melanoma) of the same compound?
**A.** 39.6 µM

**Q.** And the TGI (SF-539 CNS)?
**A.** 70.3 µM

**Q.** And the TGI (NCI-H522 lung)?
**A.** 25.5 µM

**Q.** And the TGI (OVCAR-3 ovarian)?
**A.** > 100 µM

**Q.** And the TGI (RXF 393 renal)?
**A.** 62.7 µM

**Q.** What about the TGI (K-562 leukemia) of the same compound?
**A.** 45.9 µM

**Q.** What about the TGI (COLO 205 colon) of the same compound?
**A.** 26 µM

**Q.** And the TGI (TK-10 renal)?
**A.** 74.6 µM

**Q.** And the TGI (BT-549 breast)?
**A.** > 100 µM

**Q.** And the TGI (NCI-H460 lung)?
**A.** 41.4 µM
